Test results taken from ChEMBL document CHEMBL5356964, “Design, synthesis and anti-rheumatoid arthritis activity of target TLR4 inhibitors” (Bioorg Med Chem, 2024).

What was measured:
[1] = tested on: RAW264.7; experiment: Antiarthritic activity against LPS-induced mouse RAW264.7 cells assessed as reduction in TNF-alpha level at 1 uM incubated for 24 hrs (Rvb 653.3 +/- 70.1 pg/L); assay type: functional
[2] = tested on: RAW264.7; experiment: Antiarthritic activity against LPS-induced mouse RAW264.7 cells assessed as reduction in IL-6 level at 1 uM incubated for 24 hrs (Rvb 231.1 +/- 24.2 pg/L); assay type: functional
[3] = Antiproliferative activity against rat Synovial cell assessed as inhibition of cell growth incubated for 48 hrs by CCK-8 assay; assay type: functional, cell-based
[4] = tested on: RAW264.7; experiment: Antiproliferative activity against LPS-induced- mouse RAW264.7 cells assessed as inhibition of cell growth incubated for 24 hrs by CCK-8 assay; assay type: functional, cell-based; details: RAW264.7, 24 h
[5] = molecular target: Toll-like receptor 4 (Homo sapiens, UniProt O00206); experiment: Inhibition of TLR4 (unknown origin) using TMB as substrate incubated for 90 mins
Toll-like receptor 4, sequence (O00206 whole entry): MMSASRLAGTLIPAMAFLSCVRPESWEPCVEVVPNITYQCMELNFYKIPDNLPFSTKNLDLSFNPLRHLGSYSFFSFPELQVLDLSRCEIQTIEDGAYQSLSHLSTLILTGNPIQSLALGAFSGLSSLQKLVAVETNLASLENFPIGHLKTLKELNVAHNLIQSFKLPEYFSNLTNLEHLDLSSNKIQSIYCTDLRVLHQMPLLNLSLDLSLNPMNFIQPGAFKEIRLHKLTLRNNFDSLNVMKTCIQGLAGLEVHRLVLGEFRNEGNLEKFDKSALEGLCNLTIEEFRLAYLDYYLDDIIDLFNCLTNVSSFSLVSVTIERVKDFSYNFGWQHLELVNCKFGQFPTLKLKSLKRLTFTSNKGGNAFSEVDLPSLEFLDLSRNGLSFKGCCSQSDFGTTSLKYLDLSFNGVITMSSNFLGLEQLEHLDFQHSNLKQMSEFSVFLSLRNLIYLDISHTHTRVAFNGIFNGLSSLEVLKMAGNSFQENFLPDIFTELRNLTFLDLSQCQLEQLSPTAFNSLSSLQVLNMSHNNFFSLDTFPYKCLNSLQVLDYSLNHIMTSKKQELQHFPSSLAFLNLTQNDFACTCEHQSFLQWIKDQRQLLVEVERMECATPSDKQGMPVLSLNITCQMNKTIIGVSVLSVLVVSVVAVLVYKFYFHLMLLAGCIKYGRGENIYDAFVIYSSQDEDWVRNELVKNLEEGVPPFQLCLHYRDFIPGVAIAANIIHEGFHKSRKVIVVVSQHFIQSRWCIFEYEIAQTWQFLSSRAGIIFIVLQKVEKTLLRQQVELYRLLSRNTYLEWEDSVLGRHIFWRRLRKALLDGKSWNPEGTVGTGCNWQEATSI

[6] = tested on: RAW264.7; experiment: Antiarthritic activity against LPS-induced mouse RAW264.7 cells assessed as reduction in IL-1beta level at 1 uM incubated for 24 hrs (Rvb 665.1 +/- 82.1 pg/L); assay type: functional

Compound	Activity [1]	Activity [2]	IC50 [3]	IC50 [4]	IC50 [5]	Activity [6]
CCCCC1CCC(=O)C(C(=O)CC(C)=O)C1 (configuration not stated)	401.6 pg/L	187.4 pg/L	2720 nM	1560 nM	1860 nM	481.6 pg/L
CCCCCC1CCC(=O)C(C(=O)CC(C)=O)C1 (configuration not stated)	–	–	5080 nM	2450 nM	–	–
CC(=O)CC(=O)C1CC(NC(=O)OC(C)(C)C)CCC1=O (configuration not stated)	–	–	5110 nM	2670 nM	–	–
CC(=O)CC(=O)C1CC(NC(=O)OCc2ccccc2)CCC1=O (configuration not stated)	–	–	4250 nM	2350 nM	–	–
COC(=O)C1CCC(=O)C(C(=O)CC(C)=O)C1 (configuration not stated)	–	–	16600 nM	7400 nM	–	–
CCOC(=O)C1CCC(=O)C(C(=O)CC(C)=O)C1 (configuration not stated)	–	–	5440 nM	2630 nM	–	–
CC(=O)CC(=O)C1CC(N2C(=O)c3ccccc3C2=O)CCC1=O (configuration not stated)	–	–	5960 nM	2660 nM	–	–
CCC1CCC(=O)C(C(=O)CC(C)=O)C1 (configuration not stated)	–	–	5310 nM	2680 nM	–	–
CC(=O)CC(=O)C1CC(=O)CCC1=O (configuration not stated)	–	–	6510 nM	3630 nM	–	–
CC(=O)CC(=O)C1CC(N)CCC1=O (configuration not stated)	332.9 pg/L	136.9 pg/L	2150 nM	1200 nM	1030 nM	367.3 pg/L
CC(=O)CC(=O)C1CC(C2CCC3(CC2)OCCO3)CCC1=O (configuration not stated)	–	–	5220 nM	2510 nM	–	–
CC(=O)CC(=O)C1CC(C(C)(C)C)CCC1=O (configuration not stated)	–	–	6430 nM	2930 nM	–	–
